Source: patent publication US20110195929A1, “COMPOUNDS FOR THE TREATMENT OF FLAVIVIRAL INFECTIONS” (SUMMIT CORPORATION PLC, priority 2008, published 2011)

Columns and labels:
α-D-mannosidase = molecular target: T1, α-D-mannosidase (Canavalia ensiformis, UniProt C0HJB3); experiment: Glycosidase inhibition: α-D-mannosidase; type: biochemical, Jack beans (Canavalia ensiformis); conditions: 1 mg/ml; pH 4.5, 20° C
T1 construct: purchased Sigma
T1 sequence (C0HJB3 1-981): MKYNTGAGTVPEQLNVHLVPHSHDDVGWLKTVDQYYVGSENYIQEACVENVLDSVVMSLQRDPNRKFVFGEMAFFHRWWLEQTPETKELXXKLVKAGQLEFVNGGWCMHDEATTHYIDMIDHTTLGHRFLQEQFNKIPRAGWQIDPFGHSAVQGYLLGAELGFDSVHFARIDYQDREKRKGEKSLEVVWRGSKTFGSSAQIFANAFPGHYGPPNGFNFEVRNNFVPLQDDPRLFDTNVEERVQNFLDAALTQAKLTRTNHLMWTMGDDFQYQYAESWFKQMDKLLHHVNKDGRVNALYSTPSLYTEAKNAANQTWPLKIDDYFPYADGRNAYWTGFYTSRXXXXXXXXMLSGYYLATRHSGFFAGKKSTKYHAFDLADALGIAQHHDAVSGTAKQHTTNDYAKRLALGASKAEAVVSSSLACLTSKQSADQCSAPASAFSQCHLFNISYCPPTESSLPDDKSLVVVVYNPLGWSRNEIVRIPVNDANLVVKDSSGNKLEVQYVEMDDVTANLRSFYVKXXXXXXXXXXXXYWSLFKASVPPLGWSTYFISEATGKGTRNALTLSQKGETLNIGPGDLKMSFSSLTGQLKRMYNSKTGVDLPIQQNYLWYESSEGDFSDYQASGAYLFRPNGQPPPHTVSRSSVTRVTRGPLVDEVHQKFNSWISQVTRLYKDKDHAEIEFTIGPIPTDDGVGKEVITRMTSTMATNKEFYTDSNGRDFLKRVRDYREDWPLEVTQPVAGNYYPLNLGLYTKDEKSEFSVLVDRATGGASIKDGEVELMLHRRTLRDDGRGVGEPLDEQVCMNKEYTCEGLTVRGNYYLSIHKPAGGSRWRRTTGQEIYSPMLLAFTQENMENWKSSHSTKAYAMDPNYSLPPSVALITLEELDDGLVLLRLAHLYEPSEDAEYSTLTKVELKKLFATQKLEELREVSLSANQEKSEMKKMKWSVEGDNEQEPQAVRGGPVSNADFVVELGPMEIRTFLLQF
Description: (§1) Inhibition of the N-linked glycan trimming enzymes alpha-Glucosidases I and II or alpha-Mannosidases I and II are thought to be related to the anti-viral activity of castanospermine (Compound 104) and 1-deoxynojirimycin (Compound 193). […] All enzymes were purchased from Sigma, as were the appropriate p-nitrophenyl substrates. Assays were carried out in microtitre plates. Enzymes were assayed in 0.1M citric acid/0.2M di-sodium hydrogen phosphate (McIlvaine) buffers at the optimum pH for the enzyme. All assays were carried out at 20° C. For screening assays the incubation assay consisted of 10 μl of enzyme solution, 10 μl of inhibitor solution (made up in water at 5 mM) and 50 μl of the appropriate 5 mM p-nitrophenyl substrate (3.57 mM final conc.) made up in McIlvaine buffer at the optimum pH for the enzyme.
(§2) The reactions were stopped with 0.4M glycine (pH 10.4) during the exponential phase of the reaction, which was determined at the beginning of the assay using blanks with water, which were incubated for a range of time periods to measure the reaction rate using 5 mM substrate solution. Endpoint absorbances were read at 405 nm with a Bio-rad microtitre plate reader (Benchmark). Water was substituted for the inhibitors in the blanks.

α-L-fucosidase = molecular target: T2, α-L-fucosidase (Bos taurus, UniProt Q2KIM0); experiment: Glycosidase inhibition: α-L-fucosidase; type: biochemical, Bovine kidney; conditions: 1 mg/ml; pH 5.5, 20° C
T2 construct: purchased Sigma; host or cells: bovine kidney
T2 sequence (Q2KIM0 23-468): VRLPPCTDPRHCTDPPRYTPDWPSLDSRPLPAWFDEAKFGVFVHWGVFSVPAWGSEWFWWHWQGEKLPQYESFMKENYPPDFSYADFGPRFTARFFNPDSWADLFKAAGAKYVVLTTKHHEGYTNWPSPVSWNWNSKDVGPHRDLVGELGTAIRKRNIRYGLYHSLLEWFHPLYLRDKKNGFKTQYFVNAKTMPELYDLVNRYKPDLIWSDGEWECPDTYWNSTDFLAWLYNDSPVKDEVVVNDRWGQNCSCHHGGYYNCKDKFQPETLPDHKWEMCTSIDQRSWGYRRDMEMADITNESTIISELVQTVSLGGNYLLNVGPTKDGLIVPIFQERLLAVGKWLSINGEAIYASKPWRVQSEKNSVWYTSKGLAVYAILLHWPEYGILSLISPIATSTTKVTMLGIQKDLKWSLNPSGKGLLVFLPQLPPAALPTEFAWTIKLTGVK
Description: All enzymes were purchased from Sigma, as were the appropriate p-nitrophenyl substrates. Assays were carried out in microtitre plates. Enzymes were assayed in 0.1M citric acid/0.2M di-sodium hydrogen phosphate (McIlvaine) buffers at the optimum pH for the enzyme. All assays were carried out at 20° C. For screening assays the incubation assay consisted of 10 μl of enzyme solution, 10 μl of inhibitor solution (made up in water at 5 mM) and 50 μl of the appropriate 5 mM p-nitrophenyl substrate (3.57 mM final conc.) made up in McIlvaine buffer at the optimum pH for the enzyme.
as §2

[1] = tested on: N-acetyl-β-D-glucosaminidase; experiment: Glycosidase inhibition: N-acetyl-β-D-glucosaminidase; type: biochemical, Bovine kidney; conditions: 1 mg/ml; pH 4.25, 20° C
Description: as §1, §2

α-D-glucosidase = experiment: Glycosidase inhibition: α-D-glucosidase (Bacillus); type: biochemical, Bacillus stearothermophilus; conditions: 1 mg/ml; pH 6.0, 20° C
Description: as §1, §2

Naringinase = experiment: Glycosidase inhibition: Naringinase; type: biochemical, Penecillium decumbens; conditions: 1 mg/ml; pH 4.0, 20° C
Description: as §1, §2

β-D-galactosidase = experiment: Glycosidase inhibition: β-D-galactosidase; type: biochemical, Bovine liver; conditions: 1 mg/ml; pH 7.3, 20° C
Description: as §1, §2

| Compound | inhibition at 1000 µg/mL (α-D-mannosidase) | inhibition at 1000 µg/mL (α-L-fucosidase) | % inhibition N-acetyl-β-gluc [1] | % inhibition α-gluc (Bacillus) (α-D-glucosidase) | % inhibition Naringinase (Naringinase) | % inhibition β-galactosidase (β-D-galactosidase) |
| --- | --- | --- | --- | --- | --- | --- |
| CC[C@@H]1N[C@@H](CO)[C@H](O)[C@@H](O)[C@@H]1O [Compound 23, (2S,3R,4S,5S,6S)-2-ethyl-6-(hydroxymethyl)piperidine-3,4,5-triol] | 0% | 0% | 0% | 0% | 0% | 53% |
| CC[C@@H](O)[C@H]1N[C@H](CO)[C@@H](O)[C@@H]1O [Compound 62, (2R,3R,4R,5R)-2-(hydroxymethyl)-5-((R)-1-hydroxypropyl)pyrrolidine-3,4-diol] | 0% | 0% | 20% | 65% | 37% | 100% |
| CC(O)[C@H](O)[C@H]1N[C@H](CO)[C@@H](O)[C@@H]1O (stereo partly drawn) [Compound 63, (2R,3R,4R,5R)-2-((1R)-1,2-dihydroxypropyl)-5-(hydroxymethyl)pyrrolidine-3,4-diol] | 0% | 0% | 0% | 36% | 0% | 93% |
| O[C@H]1[C@H](O)[C@@H](O)CN2CC[C@H](O)[C@H]12 [Compound 104, Castanospermine, reference compound] | 0% | 0% | 0% | 0% | 39% | 16% |
| OC[C@@H]1NC[C@H](O)[C@@H]1O [Compound 167, (2S,3R,4S)-2-(hydroxymethyl)pyrrolidine-3,4-diol] | 0% | 28% | 19% | 35% | 50% | 0% |
